Results: patent US20230233576A1, “ECLITASERTIB FOR USE IN TREATING CONDITIONS INVOLVING SYSTEMIC HYPERINFLAMMATORY RESPONSE” (priority 2020, published 2023)

Test system: adult participants hospitalized for severe COVID-19
Assay: Phase 1b severe COVID-19 study: ECG abnormalities (PCSA)
Format: in vivo, human
Conditions: 600 mg
Description: Physical examination including lung auscultation and assessment of consciousness, vital sign, electrocardiogram (ECG) parameters were measured per protocol.
For laboratory parameters (hematology, clinical chemistry, and urinalysis), vital signs, and ECG, incidences of potentially clinically significant abnormality (PCSA) values, actual values and change from baseline were summarized by treatment group.
For all laboratory, vital signs and ECG parameters, raw data and change from baseline were summarized in descriptive statistics by treatment group and scheduled time of measurement, with the exception of AST, ALT and alkaline phosphatase: instead of summarizing data in descriptive statistics, participants' profiles were presented through graphics by treatment group and with a color code to identify sites. The reason was that blood samples were processed by local laboratories with different normal ranges. For the rest of clinical laboratory these parameters it is reasonable to pool data as they are standard procedure and no significant differences in normal ranges were expected.

[1] = individual participant 70.0 kg, Discharge Before Day 15
[2] = individual participant 87.2 kg, Discharge Before Day 15
[3] = individual participant 120.0 kg, Day 15
[4] = individual participant 125.0 kg, Discharge Before Day 15

CN1C(=O)[C@@H](NC(=O)c2nnc(Cc3ccccc3)[nH]2)COc2cccnc21 [RIPKl Inhibitor]
HR (bpm) Delta (change from baseline) [1]: −25 bpm | HR (bpm) Value [1]: 76 bpm | PR % change from baseline [1]: 0.0% | PR (ms) Value [1]: 120 ms | QRS % change from baseline [1]: −38% | QRS (ms) Value [1]: 100 ms | QT (ms) Delta (change from baseline) [1]: 100 ms | QT (ms) Value [1]: 460 ms | QTcB (ms) Delta (change from baseline) [1]: 50 + ms | QTcB (ms) Value [1]: 517 ++ ms | QTcF (ms) Delta (change from baseline) [1]: 75 ++ ms | QTcF (ms) Value [1]: 495 ++ ms | HR (bpm) Delta (change from baseline) [2]: 18 bpm | HR (bpm) Value [2]: 86 bpm | PR % change from baseline [2]: 0.0% | PR (ms) Value [2]: 150 ms | QRS % change from baseline [2]: 25.0% | QRS (ms) Value [2]: 100 ms | QT (ms) Delta (change from baseline) [2]: 30 ms | QT (ms) Value [2]: 370 ms | QTcB (ms) Delta (change from baseline) [2]: 81 ++ ms | QTcB (ms) Value [2]: 443 ms | QTcF (ms) Delta (change from baseline) [2]: 63 ++ ms | QTcF (ms) Value [2]: 417 ms | HR (bpm) Delta (change from baseline) [3]: 0 bpm | HR (bpm) Value [3]: 69 bpm | PR % change from baseline [3]: 31.9% | PR (ms) Value [3]: 124 ms | QRS % change from baseline [3]: −28% | QRS (ms) Value [3]: 82 ms | QT (ms) Delta (change from baseline) [3]: 4 ms | QT (ms) Value [3]: 482 ms | QTcB (ms) Delta (change from baseline) [3]: 4 ms | QTcB (ms) Value [3]: 518 ++ ms | HR (bpm) Delta (change from baseline) [4]: −6 bpm | HR (bpm) Value [4]: 77 bpm | PR % change from baseline [4]: 0.0% | PR (ms) Value [4]: 160 ms | QRS % change from baseline [4]: −4.8% | QRS (ms) Value [4]: 80 ms | QT (ms) Delta (change from baseline) [4]: 118 ms | QT (ms) Value [4]: 466 ms | QTcB (ms) Delta (change from baseline) [4]: 121 ++ ms | QTcB (ms) Value [4]: 530 ++ ms
